Measured values from patent publication US20230407321A1, “METHOD TO DELIVER CHEMICALS AND NUCLEIC ACIDS TO PLANT CELLS USING CELLULOSE NANOCRYSTALS AS A CARRIER” (BOARD OF TRUSTEES OF THE UNIVERSITY OF ARKANSAS, priority 2022, published 2023).

What was measured:
[1] = test system: N. tabacum callus culture; test: Tobacco callus growth on MS media with 2,4-D, CNC or CNC-2,4-D conjugate; assay type: cell-based, Nicotiana tabacum; details: reduced amount of 2,4-D (0.4 mg/L or equivalent), 35 days in the dark, total fresh weight
Method: To understand if CNC can deliver a plant hormone that encourages cell division to plants, CNCs conjugated with 2,4-D were added to MS medium. 2,4-D was selected for conjugation based on the extensive use of this synthetic auxin as both a plant growth regulator commonly employed in tissue cultures and as an active ingredient in commercial herbicides. At a modest dose of 1 mg/L, 2,4-D can act as a positive growth regulator and is commonly used in plant cell cultures. […] To estimate if the conjugation of CNC and 2,4-D can improve the uptake of 2,4-D, the total biomass of callus tissues cultivated on media containing 2,4-D was measured. N. tabacum calli were seeded on media containing either a standard dose of 2,4-D (1 mg/L) or a reduced dose of 2,4-D (0.4 mg/L) both conjugated and non-conjugated with CNC. […]
N. tabacum callus culture that was established by Khodakovskaya et al. was used in experiments. […] Callus growth was on the following mediums was assessed: MS medium (no 2,4-D supplement); MS medium supplemented with reduced dose of 2,4-D (0.4 mg/L); MS medium supplemented only with CNC (0.4 mg/L); MS medium supplemented with non-conjugated CNC (0.4 mg/L) and 2,4-D (0.4 mg/L); and MS medium supplemented with CNC-2,4-D conjugate (with 0.4 mg/L 2,4D). Total produced cell biomass was evaluated by measurement of total fresh weight of callus culture generated in the end of cultivation period.

[2] = test system: Arabidopsis thaliana leaves; test: Confocal microscopy uptake of CNC-DTAF by Arabidopsis leaves; assay type: cell-based; details: free CNC or DTAF in doses comparable with amounts in the CNC-DTAF conjugate (negative controls), 4 hours
Method: To evaluate entry of synthesized CNC-dye conjugates into leaves, 12-day-old Arabidopsis thaliana seedlings were soaked with CNC-DTAF conjugate solution for 4 hours. Additionally, both protoplasts and callus cells of Nicotiana tabacum were incubated with CNC-FITC conjugate for 4 hours, as shown in FIG. 4A. All samples were imaged with confocal microscopy. The fluorescence of CNC-DTAF and CNC-FITC stained samples was digitally measured to determine the difference in signal intensity between conjugate-treated and untreated plant samples.
FIGS. 4B-F show fluorescence intensity images and measured fluorescence intensity (f) of Arabidopsis leaves incubated with water (FIG. 4B), CNC (FIG. 4C), DTAF (FIG. 4D) and CNC-DTAF conjugates (FIG. 4E), for 4 hours.
This observation indicated the ability of CNC to penetrate the cell wall and deliver dye inside the cell.
Leaves of 12-day-old A. thaliana seedlings were soaked in water (control), DTAF solution, CNC solution, or DTAF-CNC solution (1 mg/mL) for 4 hours and then intensively washed with ddH2O to fully remove residual treatments. Both freshly isolated N. tabacum protoplasts and callus cells that were cultivated for 20 days on standard Murashige and Skoog medium (MS medium) were immersed into 1 mg/mL of FITC-CNC conjugate or solution CNC and allowed to incubate for 4 hours. […]

With `O=C(O)COc1ccc(Cl)cc1Cl` [2,4-D, 2,4-dichlorophenoxyacetic acid] the “cell growth compared to medium with regular dose of 2,4-D (1 mg/L)” value [1] was “suppressed cell growth”.
For `Cl.O=C1OC2(c3ccc(O)cc3Oc3cc(O)ccc32)c2ccc(Nc3nc(Cl)nc(Cl)n3)cc21` [DTAF, 5-[(4,6-Dichlorotriazin-2-yl)amino]fluorescein hydrochloride], the “fluorescence observed in leaves” value [2] was “only slight autofluorescence”.
